Reference: patent US12661362B2, “Methods for the prevention and treatment of hearing loss” (Ting Therapeutics LLC, priority 2020, dated 2026)

Tests used:
zebrafish neuromast HCs = assay: Niclosamide/ezetimibe combination hair cell protection in Cisplatin-treated zebrafish (Loewe synergy); format: in vivo; conditions: concentrations above 2 nM, cisplatin 300 μM
Protocol: Now referring to FIGS. 6A-6B, 5 dpf zebrafish were either incubated with vehicle (DMSO), cisplatin alone at 300 μM concentration, cisplatin and ezetimibe (0.002 μM to 13.3 μM), cisplatin and niclosamide (0.02 nM to 18.3 nM), or cisplatin and combination ezetimibe/niclosamide. After 6 hours, animals were transferred to fresh water for 1 hour and then sacrificed and processed for immunohistochemistry and HC count as described above. To further elucidate whether Niclosamide, synergizes with Nrf2 activators to protect zebrafish HCs from Cisplatin damage, we tested the extent of HC damage in presence of Niclosamide and a Nrf2 activator, ezetimibe.
A three-dimensional contour plot (A) showing dose response of neuromast hair cell protection in zebrafish treated with varying concentrations of niclosamide and ezetimibe mapped to synergy distribution. […] Other dose combinations showing synergy are shown in dark blue boxes. Dose combinations with scores of 0 and 1 show additive effect. *P<5×10−2; **P<10−3, ***P<10−4 versus control fish, One-sample t-test run by the Combenefit software44. Data is shown as mean±standard deviation.
Zebrafish were treated with combinations of Niclosamide (ranging from 0.02-18.3 nM) and EZ (ranging from 0.0183-13.3 μM).

FVB/NJ mice = assay: Noise-induced hearing loss in FVB/NJ mice (ABR, DPOAE, wave-I, CtBP2 ribbon count); format: in vivo, mouse
From the text: Now referring to FIGS. 4A-4F Niclosamide attenuates Cisplatin-induced hearing loss in FVB/NJ mice. Mice: Procedures used with mice were approved by the Institutional Animal Care and Use Committee (IACUC) at the Creighton University. For functional assessments including Cisplatin and noise exposure experiments 5 to 7-week-old FVB/NJ mice obtained from Jackson Laboratory (Bar Harbor, ME, USA) were used, with a mix of males and females across experiments. For the Cisplatin and noise studies, FVB/NJ mice were treated with 10 mg/kg Niclosamide, through intraperitoneal (IP) injection. Niclosamide, was dissolved in 1% DMSO in normal saline (0.9% NaCl solution) and vortexed multiple times before injections. Treatment started 24 hours before the Cisplatin or noise-exposure and continued once daily for 3 more days. Cisplatin was injected IP at 30 mg/kg divided into 2 doses per day. Animals were given 1 mL warm sterile normal saline subcutaneously twice a day before and for 7 days after Cisplatin treatment to prevent dehydration.
Now referring to FIG. 4A, ABR tests were performed 2-3 days before Cisplatin exposure, and 5 days post-Cisplatin exposure. The experimental groups included: Cisplatin and 1% DMSO, Cisplatin and Niclosamide, Niclosamide, only, and age-matched controls receiving normal saline. For the noise experiment, auditory tests were performed 2-3 days prior to noise exposure (paradigm described below), at post-exposure day-1 to monitor temporary threshold shift (TTS) and at post-exposure day-14 to monitor permanent threshold shift (PTS). Experimental groups included: noise-exposure and normal saline, noise-exposure and Niclosamide, Niclosamide-only, and age-matched controls. Following the final auditory function measurements, mice were euthanized, and cochleae were collected for morphological assessment. Based on the results of FVB/NJ ABR/DPOAE threshold variances and power analysis, ten FVB/NJ mice per group (5 of each sex) were used in this study.
Now referring to FIGS. 5B-5F, mice were injected with 10 mg/kg Niclosamide, per IP injection once per day for four consecutive days: one day before noise exposure (8-16 kHz at 105 dB SPL), the day of the noise exposure, and two days after noise exposure. Control animals received vehicle injections on the same schedule.
Now referring to FIG. 5B, Noise-induced ABR threshold shifts were obtained by subtraction of the pre-exposure from the post-exposure thresholds.
Now referring to FIG. 5C, DPOAE amplitudes were measured at f2 frequency ranging from 10 to 80 dB SPL in mice. […] A two-factor ANOVA (group x frequency) was used to compare pre-exposure amplitudes to Day 15 amplitudes.
Now referring to FIG. 5D, mean wave-I amplitudes at 10, 20, 28.3, and 40 kHz were measured at Day 15 post-noise exposure. Amplitudes from the 10-90 dB SPL stimulus intensity were compared between groups in the pre-noise test using a two-factor ANOVA (group x stimulus level), and no group differences were detected. At Day 15, only the 60-90 dB SPL stimulus levels were used because many of the subjects had no responses below 60 dB SPL.
Now referring to FIG. 5E to assess the protection of the ribbon synapses, the cochlear samples were immunostained with CtBP2, one of the most abundant proteins in synaptic ribbon bodies (Kujawa S G, et al. 2006). […] Now referring to FIG. 5F, […] hair cell count of ribbon synapses. […] In the same cochleae, OHCs were also counted. […] The frequency region of 16 kHz was used for CtbP2 ribbon count because this has been shown that ribbons are more abundant in this frequency region.

Nrf2 = assay: nrf2a morpholino knock-down zebrafish exposed to cisplatin and niclosamide; format: in vivo; conditions: non-injected and scrambled control zebrafish; 18.3 nM, cisplatin 300 μM
Protocol: Additionally to FIGS. 6A-6B, but not shown, 5 dpf zebrafish were incubated for 6 hours with vehicle, niclosamide (2 nM to 1.48 μM) and the nrf2 pathway activator […] (DEM) as a positive control, in order to evaluate the effect of niclosamide on ggcsh, a nrf2 downstream target. Ggcsh was previously validated as a Nrf2 downstream target in zebrafish. (Sheets, 2017). Following incubation, the total RNA was isolated from whole fish and processed to measure the induced expression of nrf2 downstream gene ggcsh. […] Additionally, Nrf2a morpholinos morphlinos were prepared, followed by incubation of the zebrafish morphants with cisplatin and/or niclosamide. Zebrafish eggs were injected with 4.5 ng of scrambled morpholino or nrf2a morpholino (5′-[…] SEQ NO: 1). At 3 dpf non-injected and morphant animals were exposed to vehicle, cisplatin (300 μM), cisplatin+niclosamide 18.3 nM or niclosamide alone for 6 hours. Following 1-hour recovery, animals were fixed and processed for immunohistochemistry. Nrf2a KD was confirmed by analyzing expression of Glutathione S-transferase P1 (gstp1), a downstream target, due to lack of proper antibody to detect Nrf2 protein in zebrafish.

O=C(Nc1ccc([N+](=O)[O-])cc1Cl)c1cc(Cl)ccc1O [Niclosamide, 5-chloro-N-(2-chloro-4-nitrophenyl)-2-hydroxy-benzamide]
HC per neuromast counts, compound alone (zebrafish neuromast HCs): higher counts
noise-induced ABR threshold shifts versus noise exposed group (FVB/NJ mice; 8 kHz to 63 kHz, Day 14, 10 mg/kg IP): lower threshold shifts
synaptic ribbon (CtBP2) survival versus saline-noise group (FVB/NJ mice; 16 kHz): more synaptic ribbon survival
proportion of surviving OHCs versus saline-noise animals (FVB/NJ mice; 32 kHz): similar
wave-I amplitudes versus noise-exposed group (FVB/NJ mice; 80 and 90 dB SPL, Day 15): higher amplitudes
wave-I amplitude (cochlear nerve activity) versus age-matched controls (FVB/NJ mice; Day 15): comparable to aged matched controls
DPOAE amplitudes versus noise-saline group (FVB/NJ mice; day-15 post-noise exposure): significantly higher
hair cell number after cotreatment with cisplatin (Nrf2): significantly higher hair cell number
